According to ChEMBL document CHEMBL4673357, “Antimicrobial Furancarboxylic Acids from a Penicillium sp” (2020):

What was measured:
Format in all cases: functional
Escherichia coli = test: Antibacterial activity against Escherichia coli ATCC 35218 assessed as reduction in microbial growth after 18 hrs by microbroth dilution method
Staphylococcus aureus = test: Antibacterial activity against Staphylococcus aureus ATCC 25923 assessed as reduction in microbial growth after 18 hrs by microbroth dilution method
Candida albicans = test: Antifungal activity against Candida albicans ATCC 10231 assessed as reduction in microbial growth after 18 hrs by microbroth dilution method

MIC (Escherichia coli) | MIC (Staphylococcus aureus) | MIC (Candida albicans) | Compound
2.9 µg/mL | 2.9 µg/mL | 4.4 µg/mL | CCCC1=C(C(=O)OC)C(=O)[C@@](C)(/C=C/C=C/[C@H](C)O)O1
3.5 µg/mL | 3.5 µg/mL | 7 µg/mL | COC(=O)C1=C(c2ccsc2C)O[C@](C)(/C=C/CC[C@@H](C)O)C1=O
5.4 µg/mL | 2.7 µg/mL | 5.4 µg/mL | COC(=O)C1=C(C)O[C@](C)(/C=C/CC[C@@H](C)O)C1=O
3 µg/mL | 3 µg/mL | 5.9 µg/mL | CCCC1=C(C(=O)OC)C(=O)[C@@](C)(/C=C/CC[C@@H](C)O)O1
0.9 µg/mL | 1.9 µg/mL | 3.8 µg/mL | CC/C=C/C=C/[C@@]1(C)OC(c2cc(C(=O)O)sc2C)=C(C(=O)OC)C1=O
5.4 µg/mL | 2.7 µg/mL | 5.4 µg/mL | COC(=O)C1=C(C)O[C@](C)(/C=C/CC[C@H](C)O)C1=O
7 µg/mL | 3.5 µg/mL | 7 µg/mL | COC(=O)C1=C(c2ccsc2C)O[C@](C)(/C=C/C=C/[C@H](C)O)C1=O
1.7 µg/mL | 1.7 µg/mL | 3.3 µg/mL | CC/C=C/C=C/[C@@]1(C)OC(c2ccsc2C)=C(C(=O)OC)C1=O
2.9 µg/mL | 2.9 µg/mL | 4.4 µg/mL | CCCC1=C(C(=O)OC)C(=O)[C@@](C)(/C=C/C=C/[C@@H](C)O)O1
7 µg/mL | 3.5 µg/mL | 7 µg/mL | COC(=O)C1=C(c2ccsc2C)O[C@](C)(/C=C/C=C/[C@@H](C)O)C1=O
3.5 µg/mL | 3.5 µg/mL | 7 µg/mL | COC(=O)C1=C(c2ccsc2C)O[C@](C)(/C=C/CC[C@H](C)O)C1=O
3 µg/mL | 3 µg/mL | 5.9 µg/mL | CCCC1=C(C(=O)OC)C(=O)[C@@](C)(/C=C/CC[C@H](C)O)O1
 |  | 0.1 µg/mL | C[C@@H]1[C@H](O)[C@@H](C)/C=C/C=C/C=C/C=C/C=C/C=C/C=C/[C@H](O[C@@H]2O[C@H](C)[C@@H](O)[C@H](N)[C@@H]2O)C[C@@H]2O[C@](O)(C[C@@H](O)C[C@@H](O)[C@H](O)CC[C@@H](O)C[C@@H](O)CC(=O)O[C@H]1C)C[C@H](O)[C@H]2C(=O)O [AMPHOTERICIN B]
2.3 µg/mL | 0.1 µg/mL |  | CN[C@@H]1[C@H](O[C@H]2[C@H](O[C@H]3[C@H](O)[C@@H](O)[C@H](N=C(N)N)[C@@H](O)[C@@H]3N=C(N)N)O[C@@H](C)[C@]2(O)C=O)O[C@@H](CO)[C@H](O)[C@H]1O [STREPTOMYCIN]
